One substance from patent US6187800A, “Method for the prevention and treatment of mastitis” (Novartis Animal Health U.S., Inc., priority 1997, dated 2001) can be followed below.

Common to all, as to test: MIC, agar well diffusion method
Format in all cases: cell-based

The subject of one assay is E.coli. The conditions noted are these: 37° C. overnight. The procedure: (§1) The minimal inhibitory concentrations (MIC) of micrococcin P1 against a panel of test organisms were determined using an agar well diffusion method. Agar plates were overlaid with soft agar seeded with the test organism. When the agar had solidified wells of 4 mm diameter were cut in the agar. 50 μl of a series of two fold dilutions of the peptide in citrate buffer pH4 were applied to the wells and the plates were kept at 4° C. for two hours prior to incubation at 37° C. overnight. The MIC was determined as the lowest concentration of peptide giving a clear zone of lysis around the well. Indicator strains were grown in Tryptose broth (Difco). M17 medium (Merck) was used for plates and soft agar with the following exceptions. For Pasteurella haemolytica, tryptose supplemented with 5% of toetal calf's serum was used. For Leuconostoc mesenteroides, plate count agar--Merck--, +15% saccharose was used, and for Bacillus cereus plate count agar +0.2% potato starch-Sigma 2004-) was used.

Another assay deals with Micrococcus luteus. The following applies: 37° C. overnight. The procedure: as §1
For assay [1], the system named is Staphylococcus aureus Newbould. The following applies: 37° C. overnight. The procedure:
as §1

The test system of another assay is Listeria innocua. The conditions noted are these: 37° C. overnight. The procedure: as §1
In the next assay the test system is Streptococcus faecalis. The following applies: 37° C. overnight. The procedure: as §1
A further assay concerns Pasteurella haemolytica. The following applies: tryptose + 5% foetal calf's serum. The procedure:
as §1

In the next assay the test system is Streptococcus uberis. The following applies: 37° C. overnight. The procedure:
as §1

The test system of the next assay is Bacillus cereus. The following applies: plate count agar +0.2% potato starch. The procedure:
as §1

Assay [2] relates to Staphylococcus aureus V557. The following applies: 37° C. overnight. The procedure:
as §1

Assay [3] relates to Leuconostoc mesenteroides. The conditions noted are these: plate count agar +15% saccharose. The procedure: as §1

In general, MIC refers to the least concentration at which growth counts as inhibited. On to micrococcin P1, for which the MIC is above 1000 µg/mL against E.coli; 0.015 µg/mL against Micrococcus luteus; 0.24 µg/mL in assay [1]; 1.95 µg/mL against Listeria innocua; 1.98 µg/mL with Streptococcus faecalis; above 1000 µg/mL in the assay on Pasteurella haemolytica. For the same substance, the MIC is 1.49 µg/mL in the assay with Streptococcus uberis, 0.24 µg/mL in the assay with Bacillus cereus, 1.91 µg/mL in assay [2] and above 1000 µg/mL in assay [3].
